The source of these data is patent US11717578B2, “Undecylenic acid-based nanocarriers for targeted drug delivery” (University of Cincinnati, priority 2017, dated 2023).

This assay relates to Reactive Oxygen Species (ROS). Description: DPBF assay of photodynamic and sonodynamic ROS generation. As to conditions: complexed with mPEG-UA nanocarrier vesicles. The text has this:
Photodynamic Reactive Oxygen Species (ROS) were generated by irradiation of red/green/blue (RGB) LEDs at 8 mW/cm^2 and detected by the 1,3-diphenylisobenzofuran (DPBF) assay. A photoreactive iron complex (Fe3[diCl-Sal-AHA]3OCH3 Na) from the Baldwin Lab (UC Chemistry) was employed as the photosensitizer and complexed with the mPEG-UA nanocarrier vesicles.

Consider Fe3[diCl-Sal-AHA]3OCH3 Na, for which the “photodynamic ROS generation” value (RGB LEDs at 8 mW/cm^2) is “photodynamic ROS are generated”.

On to sodium copper chlorophyllin, for which the “sonodynamic ROS generation” value (sonication at 1.0 MHz, 3 W/cm^2) was “Sonodynamic ROS were generated”.
